Measured values reported in patent US9617602B2, “Methods and compositions for determining resistance to androgen receptor therapy” (Aragon Pharmaceuticals, Inc., priority 2012, dated 2017).

What was measured:
Type in all cases: cell-based, human
[1] = test system: Class 2 MDV3100- and ARN-509-resistant cell lines; test: Proliferation assay (CellTiter-Glo), agonist and antagonist mode
[2] = test system: Class 1 resistant cell lines; test: Transcriptional reporter assay (probasin-luciferase)
Description: With the exception of the LNCaP/AR(cs)-Luc cells that contain an integrated androgen responsive reporter, cells were transiently transfected using Lipofectin® (Life Technologies) according to the manufacturer's protocol. […] Following transfection, the cells were incubated for 4 hours.
Following 48 hour incubation the medium was removed and the cells were lysed in 40 μL of lysis buffer (25 mM Tris Phosphate, 2 mM CDTA, 10% Glycerol, 0.5% Triton X-100, 2 mM DTT).

LNCaP/AR(cs) cells = test: Endogenous gene transcriptional assay (real-time PCR of androgen responsive genes)
Description: Total RNA was isolated using the Aurum™ total RNA isolation kit (BIO-RAD, Hercules, Calif.). RNA (1 μg) was reverse transcribed using the iScript cDNA synthesis kit (BIO-RAD, Hercules, Calif.) to produce cDNA. Real-time PCR was performed using the Applied Biosystems 7900HT instrument and SYBR Green PCR Master Mix (Applied Biosystems, Foster City, Calif.). PCR reactions were performed in 6 μL according to the manufacturer's protocol and a thermocycle protocol of 95° C. for 10 minutes followed by 40 cycles of 95° C. for 15 seconds and 58° C. for 1 minute. Androgen responsive gene (PSA, SLUG, TMPRSS2, STEAP4, FKBP5, ORM1, NOV, FASN, NKX3.1, AMIGO2, BDNF, CAMK2N1, HPGD, NCAPD3, PLD1) expression was normalized to GAPDH expression and expressed relative to vehicle treatment of the parental cell line.
Gene expression was normalized to GAPDH as described above.

[3] = Table 4A, 1 nM R1881 or 30 μM compound, vehicle=1.00

CNC(=O)c1ccc(N2C(=S)N(c3cnc(C#N)c(C(F)(F)F)c3)C(=O)C23CCC3)cc1F [ARN-509]
Agonist Proliferation Assay (% Viability) ([1]; Class 2, [Antagonists] = 10 μM, 7 days): ++ (‘++’ = >30) | viability at 0.0001 µM ([1]; Homo sapiens, 168 h, read-out: Antagonist Proliferation Assay (% Viability)): > 30% | Stimulation of proliferation in Class 2 cell lines ([1]; agonist mode): can stimulate proliferation | Antagonism of androgen dependent growth of Class 2 resistant lines ([1]; antagonist mode): only partially antagonized | Agonist Transcriptional Reporter Assay (% Max Activity) ([2]; Class 1, [Antagonists] = 50 μM): + (‘+’ = <5) | Antagonist Transcriptional Reporter Assay (% Max Activity) ([2]; Class 1, [Antagonists] = 50 μM in presence of R1881): ++ (‘++’ = >5) | Antagonist activity in probasin-luciferase reporter, Class 1 resistant cells ([2]; decrease in luciferase activity relative to no treatment controls): effective antagonists | AMIGO2 expression, antagonist transcription (LNCaP/AR(cs) cells; +1 nM R1881, 0.3 μM): 0.30 | BDNF expression, antagonist transcription (LNCaP/AR(cs) cells; +1 nM R1881, 0.3 μM): 0.43 | CAM2KN1 expression, antagonist transcription (LNCaP/AR(cs) cells; +1 nM R1881, 0.3 μM): 0.04 | FASN expression, antagonist transcription (LNCaP/AR(cs) cells; +1 nM R1881, 0.3 μM): 1.92 | FKBP5 expression, antagonist transcription (LNCaP/AR(cs) cells; +1 nM R1881, 0.3 μM): 33.14 | HPGD expression, antagonist transcription (LNCaP/AR(cs) cells; +1 nM R1881, 0.3 μM): 105.97 | NCAPD3 expression, antagonist transcription (LNCaP/AR(cs) cells; +1 nM R1881, 0.3 μM): 43.93 | NKX3.1 expression, antagonist transcription (LNCaP/AR(cs) cells; +1 nM R1881, 0.3 μM): 8.32 | NOV expression, antagonist transcription (LNCaP/AR(cs) cells; +1 nM R1881, 0.3 μM): 0.03 | ORM1 expression, antagonist transcription (LNCaP/AR(cs) cells; +1 nM R1881, 0.3 μM): 5100.90 | PLD1 expression, antagonist transcription (LNCaP/AR(cs) cells; +1 nM R1881, 0.3 μM): 0.02 | PSA expression, antagonist transcription (LNCaP/AR(cs) cells; +1 nM R1881, 0.3 μM): 19.09 | SLUG expression, antagonist transcription (LNCaP/AR(cs) cells; +1 nM R1881, 0.3 μM): 71.33 | STEAP4 expression, antagonist transcription (LNCaP/AR(cs) cells; +1 nM R1881, 0.3 μM): 1019.98 | TMPRSS2 expression, antagonist transcription (LNCaP/AR(cs) cells; +1 nM R1881, 0.3 μM): 19.07 | AMIGO2 expression, antagonist transcription (LNCaP/AR(cs) cells; +1 nM R1881, 1 μM): 0.31 | BDNF expression, antagonist transcription (LNCaP/AR(cs) cells; +1 nM R1881, 1 μM): 0.35 | CAM2KN1 expression, antagonist transcription (LNCaP/AR(cs) cells; +1 nM R1881, 1 μM): 0.06 | FASN expression, antagonist transcription (LNCaP/AR(cs) cells; +1 nM R1881, 1 μM): 1.52 | FKBP5 expression, antagonist transcription (LNCaP/AR(cs) cells; +1 nM R1881, 1 μM): 22.49 | HPGD expression, antagonist transcription (LNCaP/AR(cs) cells; +1 nM R1881, 1 μM): 76.25 | NCAPD3 expression, antagonist transcription (LNCaP/AR(cs) cells; +1 nM R1881, 1 μM): 32.00 | NKX3.1 expression, antagonist transcription (LNCaP/AR(cs) cells; +1 nM R1881, 1 μM): 9.92 | NOV expression, antagonist transcription (LNCaP/AR(cs) cells; +1 nM R1881, 1 μM): 0.09 | ORM1 expression, antagonist transcription (LNCaP/AR(cs) cells; +1 nM R1881, 1 μM): 2679.73 | PLD1 expression, antagonist transcription (LNCaP/AR(cs) cells; +1 nM R1881, 1 μM): 0.02 | PSA expression, antagonist transcription (LNCaP/AR(cs) cells; +1 nM R1881, 1 μM): 21.75 | SLUG expression, antagonist transcription (LNCaP/AR(cs) cells; +1 nM R1881, 1 μM): 62.00 | STEAP4 expression, antagonist transcription (LNCaP/AR(cs) cells; +1 nM R1881, 1 μM): 742.61 | TMPRSS2 expression, antagonist transcription (LNCaP/AR(cs) cells; +1 nM R1881, 1 μM): 24.11 | AMIGO2 expression, antagonist transcription (LNCaP/AR(cs) cells; +1 nM R1881, 3 μM): 0.52 | BDNF expression, antagonist transcription (LNCaP/AR(cs) cells; +1 nM R1881, 3 μM): 0.67 | CAM2KN1 expression, antagonist transcription (LNCaP/AR(cs) cells; +1 nM R1881, 3 μM): 0.19 | FASN expression, antagonist transcription (LNCaP/AR(cs) cells; +1 nM R1881, 3 μM): 1.08 | FKBP5 expression, antagonist transcription (LNCaP/AR(cs) cells; +1 nM R1881, 3 μM): 12.56 | HPGD expression, antagonist transcription (LNCaP/AR(cs) cells; +1 nM R1881, 3 μM): 32.19 | NCAPD3 expression, antagonist transcription (LNCaP/AR(cs) cells; +1 nM R1881, 3 μM): 15.57 | NKX3.1 expression, antagonist transcription (LNCaP/AR(cs) cells; +1 nM R1881, 3 μM): 12.01 | NOV expression, antagonist transcription (LNCaP/AR(cs) cells; +1 nM R1881, 3 μM): 0.31 | ORM1 expression, antagonist transcription (LNCaP/AR(cs) cells; +1 nM R1881, 3 μM): 1031.40 | PLD1 expression, antagonist transcription (LNCaP/AR(cs) cells; +1 nM R1881, 3 μM): 0.04 | PSA expression, antagonist transcription (LNCaP/AR(cs) cells; +1 nM R1881, 3 μM): 23.57 | SLUG expression, antagonist transcription (LNCaP/AR(cs) cells; +1 nM R1881, 3 μM): 50.70 | STEAP4 expression, antagonist transcription (LNCaP/AR(cs) cells; +1 nM R1881, 3 μM): 256.89 | TMPRSS2 expression, antagonist transcription (LNCaP/AR(cs) cells; +1 nM R1881, 3 μM): 23.38 | AMIGO2 expression, antagonist transcription (LNCaP/AR(cs) cells; +1 nM R1881, 10 μM): 0.60 | BDNF expression, antagonist transcription (LNCaP/AR(cs) cells; +1 nM R1881, 10 μM): 0.74 | CAM2KN1 expression, antagonist transcription (LNCaP/AR(cs) cells; +1 nM R1881, 10 μM): 0.43 | FASN expression, antagonist transcription (LNCaP/AR(cs) cells; +1 nM R1881, 10 μM): 0.60 | FKBP5 expression, antagonist transcription (LNCaP/AR(cs) cells; +1 nM R1881, 10 μM): 2.74 | HPGD expression, antagonist transcription (LNCaP/AR(cs) cells; +1 nM R1881, 10 μM): 8.36 | NCAPD3 expression, antagonist transcription (LNCaP/AR(cs) cells; +1 nM R1881, 10 μM): 2.39 | NKX3.1 expression, antagonist transcription (LNCaP/AR(cs) cells; +1 nM R1881, 10 μM): 7.22 | NOV expression, antagonist transcription (LNCaP/AR(cs) cells; +1 nM R1881, 10 μM): 0.86 | ORM1 expression, antagonist transcription (LNCaP/AR(cs) cells; +1 nM R1881, 10 μM): 156.90 | PLD1 expression, antagonist transcription (LNCaP/AR(cs) cells; +1 nM R1881, 10 μM): 0.11 | PSA expression, antagonist transcription (LNCaP/AR(cs) cells; +1 nM R1881, 10 μM): 12.90 | SLUG expression, antagonist transcription (LNCaP/AR(cs) cells; +1 nM R1881, 10 μM): 11.15 | STEAP4 expression, antagonist transcription (LNCaP/AR(cs) cells; +1 nM R1881, 10 μM): 32.98 | TMPRSS2 expression, antagonist transcription (LNCaP/AR(cs) cells; +1 nM R1881, 10 μM): 11.45 | AMIGO2 expression, antagonist transcription (LNCaP/AR(cs) cells; +1 nM R1881, 30 μM): 0.76 | BDNF expression, antagonist transcription (LNCaP/AR(cs) cells; +1 nM R1881, 30 μM): 0.88 | CAM2KN1 expression, antagonist transcription (LNCaP/AR(cs) cells; +1 nM R1881, 30 μM): 0.42 | FASN expression, antagonist transcription (LNCaP/AR(cs) cells; +1 nM R1881, 30 μM): 0.64 | FKBP5 expression, antagonist transcription (LNCaP/AR(cs) cells; +1 nM R1881, 30 μM): 1.08 | HPGD expression, antagonist transcription (LNCaP/AR(cs) cells; +1 nM R1881, 30 μM): 2.78 | NCAPD3 expression, antagonist transcription (LNCaP/AR(cs) cells; +1 nM R1881, 30 μM): 0.96 | NKX3.1 expression, antagonist transcription (LNCaP/AR(cs) cells; +1 nM R1881, 30 μM): 5.49 | NOV expression, antagonist transcription (LNCaP/AR(cs) cells; +1 nM R1881, 30 μM): 0.82 | ORM1 expression, antagonist transcription (LNCaP/AR(cs) cells; +1 nM R1881, 30 μM): 16.42 | PLD1 expression, antagonist transcription (LNCaP/AR(cs) cells; +1 nM R1881, 30 μM): 0.32 | PSA expression, antagonist transcription (LNCaP/AR(cs) cells; +1 nM R1881, 30 μM): 7.20 | SLUG expression, antagonist transcription (LNCaP/AR(cs) cells; +1 nM R1881, 30 μM): 5.49 | STEAP4 expression, antagonist transcription (LNCaP/AR(cs) cells; +1 nM R1881, 30 μM): 6.86 | TMPRSS2 expression, antagonist transcription (LNCaP/AR(cs) cells; +1 nM R1881, 30 μM): 5.94 | AMIGO2 gene expression (LNCaP/AR(cs) cells; [3]): 0.72 | BDNF gene expression (LNCaP/AR(cs) cells; [3]): 0.85 | CAM2KN1 gene expression (LNCaP/AR(cs) cells; [3]): 0.80 | FASN gene expression (LNCaP/AR(cs) cells; [3]): 0.75 | FKBP5 gene expression (LNCaP/AR(cs) cells; [3]): 0.99 | HPGD gene expression (LNCaP/AR(cs) cells; [3]): 1.18 | NCAPD3 gene expression (LNCaP/AR(cs) cells; [3]): 0.91 | NKX3.1 gene expression (LNCaP/AR(cs) cells; [3]): 1.13 | NOV gene expression (LNCaP/AR(cs) cells; [3]): 1.04 | ORM1 gene expression (LNCaP/AR(cs) cells; [3]): 0.84 | PLD1 gene expression (LNCaP/AR(cs) cells; [3]): 1.04
